Source: patent US11149022B2, “Antagonists of the muscarinic acetylcholine receptor M4” (Vanderbilt University, priority 2017, dated 2021)
pIC50: −log10 of the molar value.

Molecular target: T1, Human M4 (Homo sapiens, UniProt P08173)
T1 construct: expressed in transfected cells; host or cells: CHO-K1 (ATCC), stably co-expressing chimeric G protein Gqi5
T1 sequence (P08173 1-479): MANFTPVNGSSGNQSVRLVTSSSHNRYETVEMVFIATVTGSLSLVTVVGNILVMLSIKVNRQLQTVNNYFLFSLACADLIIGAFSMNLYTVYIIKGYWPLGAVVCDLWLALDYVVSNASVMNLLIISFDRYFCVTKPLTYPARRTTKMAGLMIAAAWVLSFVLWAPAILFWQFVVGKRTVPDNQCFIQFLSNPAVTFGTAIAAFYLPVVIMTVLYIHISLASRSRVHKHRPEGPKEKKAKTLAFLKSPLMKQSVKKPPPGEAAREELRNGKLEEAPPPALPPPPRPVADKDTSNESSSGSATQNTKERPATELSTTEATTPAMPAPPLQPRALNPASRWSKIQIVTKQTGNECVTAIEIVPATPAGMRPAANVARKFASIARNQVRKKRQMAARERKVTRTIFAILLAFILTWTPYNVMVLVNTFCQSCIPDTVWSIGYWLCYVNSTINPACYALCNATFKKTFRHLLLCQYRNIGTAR
Assay: mAChR M4 cell-based functional assay (calcium flux, antagonist mode)
Conditions: for remaining activity at 30 µM: % ACh maximum at 30 μM, read-out: Emin; for pIC50: M4/Gqi5/CHO-K1 cells, concentration-dependent decrease of the EC80 acetylcholine response
Protocol: Human or rat M4 cDNA, along with the chimeric G protein Gqi5, were transfected into Chinese hamster ovary (CHO-K1) cells purchased from the American Type Culture Collection using Lipofectamine2000. M4/Gqi5/CHO cells were grown in Ham's F-12 medium containing 10% heat-inactivated fetal bovine serum (FBS), 20 mM HEPES, 500 μg/mL G418 sulfate, and 200 μg/mL Hygromycin B.
For high throughput measurement of agonist-evoked increases in intracellular calcium, CHO-K1 cells stably expressing muscarinic receptors were plated in growth medium lacking G418 and hygromycin at 15,000 cells/20 μL/well in Greiner 384-well black-walled, tissue culture (TC)-treated, clear-bottom plates (VWR). Cells were incubated overnight at 37° C. and 5% CO2. The next day, cells were washed using an ELX 405 (BioTek) with assay buffer; the final volume was then aspirated to 20 μL, Next, 20 μL of a 2.3 μM stock of Fluo-4/acetoxymethyl ester (Invitrogen, Carlsbad, Calif.), prepared as a 2.3 μM stock in DMSO, mixed in a 1:1 ratio with 10% (w/v) Pluronic F-127 and diluted in assay buffer, was added to the wells and the cell plates were incubated for 50 min at 37° C. and 5% CO2. Dye was removed by washing with the ELX 405 and the final volume was aspirated to […]. Compound master plates were formatted in a 10 point concentration-response curve (CRC) format (1:3 dilutions) in 100% DMSO with a starting concentration of 10 or 1 mM using a BRAVO liquid handler (Agilent). Test compound CRCs were then transferred to daughter plates (240 nL) using the Echo acoustic plate reformatter (Labcyte, Sunnyvale, Calif.) and then diluted into assay buffer (40 μL) to a 2× stock using a Thermo Fisher Combi (Thermo Fisher Scientific, Waltham, Mass.).
Calcium flux was measured using the Functional Drug Screening System (FDSS) 6000 or 7000 (Hamamatsu Corporation, Tokyo, Japan) as an increase in the fluorescent static ratio. Compounds were applied to cells (20 μL, 2×) using the automated system of the FDSS at 2 seconds into the protocol and the data were collected at 1 Hz. At 143 s, 10 μL of an EC20 concentration of the muscarinic receptor agonist acetylcholine was added (5×), followed by the addition of 12 μL of an EC80 concentration of acetylcholine at the 268 s time point (5×). Agonist activity was analyzed as a concentration-dependent increase in calcium mobilization upon compound addition. Positive allosteric modulator activity was analyzed as a concentration-dependent increase in the EC20 acetylcholine response. Antagonist activity was analyzed as a concentration-dependent decrease in the EC80 acetylcholine response; for the purposes of the tables herein, an […] (inhibitory concentration 50) was calculated as a concentration-dependent decrease of the response elicited by an EC80 concentration of acetylcholine. Concentration-response curves were generated using a four-parameter logistical equation in XLFit curve fitting software (IDBS, Bridgewater, N.J.) for Excel (Microsoft, Redmond, Wash.) or Prism (GraphPad Software, Inc., San Diego, Calif.) or the Dotmatics software platform (Dotmatics, Bishop's Stortford, UK).
Compounds were synthesized as described above. Activity (IC50 and Emin) was determined in the mAChR M4 cell-based functional assay as described above and the data are shown in Table 4.

SMILES | remaining activity at 30 µM [%] | pIC50
Fc1ccc(Cl)c(-c2ccc(NCC3CC4(CCN(Cc5ccccn5)CC4)C3)nn2)c1 [Compound 47, 6-(2-chloro-5-fluoro-phenyl)-N-[[7-(2-pyridylmethyl)-7-azaspiro[3.5]nonan-2-yl]methyl]pyridazin-3-amine] | 5.52 | 5.72
COc1cccc(CN2CCC3(CC2)CC(CNc2ccc(-c4cc(F)ccc4Cl)nn2)C3)n1 [Compound 48, 6-(2-chloro-5-fluoro-phenyl)-N-[[7-[(6-methoxy-2-pyridyl)methyl]-7-azaspiro[3.5]nonan-2-yl]methyl]pyridazin-3-amine] | 4.48 | 5.76
Fc1ccc(Cl)c(-c2ccc(NCC3CC4(CCN(Cc5ccc6c(c5)OCO6)CC4)C3)nn2)c1 [Compound 49, N-[[7-(1,3-benzodioxol-5-ylmethyl)-7-azaspiro[3.5]nonan-2-yl]methyl]-6-(2-chloro-5-fluoro-phenyl)pyridazin-3-amine] | 4.6 | 5.69
Cc1nn(C)cc1-c1ccc(NCC2CC3(CCN(CC4CCCCC4)CC3)C2)nn1 [Compound 50, N-[[7-(cyclohexylmethyl)-7-azaspiro[3.5]nonan-2-yl]methyl]-6-(1,3-dimethylpyrazol-4-yl)pyridazin-3-amine] | 6.19 | 5.94
Cc1nn(C)cc1-c1ccc(NCC2CC3(CCN(CC4CCCOC4)CC3)C2)nn1 (stereo not shown) [Compound 51, 6-(1,3-dimethylpyrazol-4-yl)-N-[[7-(tetrahydropyran-3-ylmethyl)-7-azaspiro[3.5]nonan-2-yl]methyl]pyridazin-3-amine] | 37.6 | < 5.00
Cc1nn(C)cc1-c1ccc(NCC2CC3(CCN(CC4CCOCC4)CC3)C2)nn1 [Compound 52, 6-(1,3-dimethylpyrazol-4-yl)-N-[[7-(tetrahydropyran-4-ylmethyl)-7-azaspiro[3.5]nonan-2-yl]methyl]pyridazin-3-amine] | 30.8 | < 5.00
Cc1nn(C)cc1-c1ccc(NCC2CC3(CCN(Cc4ccccc4)CC3)C2)nn1 [Compound 53, N-[(7-benzyl-7-azaspiro[3.5]nonan-2-yl)methyl]-6-(1,3-dimethylpyrazol-4-yl)pyridazin-3-amine] | 8.66 | 5.57
Cc1nn(C)cc1-c1ccc(NCC2CC3(CCN(Cc4ccccc4F)CC3)C2)nn1 [Compound 54, 6-(1,3-dimethylpyrazol-4-yl)-N-[[7-[(2-fluorophenyl)methyl]-7-azaspiro[3.5]nonan-2-yl]methyl]pyridazin-3-amine] | 6.27 | 5.95
Cc1nn(C)cc1-c1ccc(NCC2CC3(CCN(Cc4ccccn4)CC3)C2)nn1 [Compound 55, 6-(1,3-dimethylpyrazol-4-yl)-N-[[7-(2-pyridylmethyl)-7-azaspiro[3.5]nonan-2-yl]methyl]pyridazin-3-amine] | 34.3 | < 5.00
Cc1cccnc1CN1CCC2(CC1)CC(CNc1ccc(-c3cn(C)nc3C)nn1)C2 [Compound 56, 6-(1,3-dimethylpyrazol-4-yl)-N-[[7-[(3-methyl-2-pyridyl)methyl]-7-azaspiro[3.5]nonan-2-yl]methyl]pyridazin-3-amine] | 19.4 | 5.40
Cc1nn(C)cc1-c1ccc(NCC2CC3(CCN(CC45CC6CC(CC(C6)C4)C5)CC3)C2)nn1 [Compound 57, N-[[7-(1-adamantylmethyl)-7-azaspiro[3.5]nonan-2-yl]methyl]-6-(1,3-dimethylpyrazol-4-yl)pyridazin-3-amine] | 3.64 | 6.52
Cc1nn(C)cc1-c1ccc(NCC2CC3(CCN(Cc4ccc(F)cc4)CC3)C2)nn1 [Compound 58, 6-(1,3-dimethylpyrazol-4-yl)-N-[[7-[(4-fluorophenyl)methyl]-7-azaspiro[3.5]nonan-2-yl]methyl]pyridazin-3-amine] | 11.8 | 5.29
Cc1nn(C)cc1-c1ccc(NCC2CC3(CCN(CC4CC5C=CC4C5)CC3)C2)nn1 (stereo not shown) [Compound 59, N-[[7-(5-bicyclo[2.2.1]hept-2-enylmethyl)-7-azaspiro[3.5]nonan-2-yl]methyl]-6-(1,3-dimethylpyrazol-4-yl)pyridazin-3-amine] | 5.41 | 6.74
CC(C)(C)CCN1CCC2(CC1)CC(COc1ccc(-c3cc(F)ccc3Cl)nn1)C2 [Compound 60, 2-[[6-(2-Chloro-5-fluoro-phenyl)pyridazin-3-yl]oxymethyl]-7-(3,3-dimethylbutyl)-7-azaspiro[3.5]nonane] | 3.47 | 6.52
Fc1ccc(Cl)c(-c2ccc(OCC3CC4(CCN(CC5CC6C=CC5C6)CC4)C3)nn2)c1 (stereo not shown) [Compound 61, 7-(5-bicyclo[2.2.1]hept-2-enylmethyl)-2-[[6-(2-chloro-5-fluoro-phenyl)pyridazin-3-yl]oxymethyl]-7-azaspiro[3.5]nonane] | 3.96 | 6.60
Fc1ccc(Cl)c(-c2ccc(OCC3CC4(CCN(CC5CCCCC5)CC4)C3)nn2)c1 [Compound 62, 2-[[6-(2-chloro-5-fluoro-phenyl)pyridazin-3-yl]oxymethyl]-7-(cyclohexylmethyl)-7-azaspiro[3.5]nonane] | 6.14 | 5.83
Fc1ccc(Cl)c(-c2ccc(OCC3CC4(CCN(CC5CCCOC5)CC4)C3)nn2)c1 (stereo not shown) [Compound 63, 2-[[6-(2-chloro-5-fluoro-phenyl)pyridazin-3-yl]oxymethyl]-7-(tetrahydropyran-3-ylmethyl)-7-azaspiro[3.5]nonane] | 7.8 | 5.67
Fc1ccc(Cl)c(-c2ccc(OCC3CC4(CCN(CC5CCOCC5)CC4)C3)nn2)c1 [Compound 64, 2-[[6-(2-chloro-5-fluoro-phenyl)pyridazin-3-yl]oxymethyl]-7-(tetrahydropyran-4-ylmethyl)-7-azaspiro[3.5]nonane] | 6.61 | 5.88
Fc1ccc(Cl)c(-c2ccc(OCC3CC4(CCN(Cc5ccccc5)CC4)C3)nn2)c1 [Compound 65, 7-benzyl-2-[[6-(2-chIoro-5-fluoro-phenyl)pyridazin-3-yl]oxymethyl]-7-azaspiro[3.5]nonane] | 6.28 | 5.58
Fc1ccc(Cl)c(-c2ccc(OCC3CC4(CCN(Cc5ccccn5)CC4)C3)nn2)c1 [Compound 66, 2-[[6-(2-chloro-5-fluoro-phenyl)pyridazin-3-yl]oxymethyl]-7-(2-pyridylmethyl)-7-azaspiro[3.5]nonane] | 8.3 | 5.56
